Results: US9522921B2, “Photochromic spirooxazine compounds” (Sabic Global Technologies, B.V., priority 2015, dated 2016)

Assay: Absorption spectrum in toluene upon irradiation with UV-A radiation
Assay type: physicochemical
Description: The properties of the compound characterized by Structure A were investigated.

Structure (SMILES): CN1c2ccccc2C(C)(C)C12C=Nc1cc(N(c3ccccc3)c3ccc4ccccc4c3)c3ccccc3c1O2 (centres unmarked) [Structure A, 1,3,3-trimethyl-N-(naphthalen-2-yl)-N-phenylspiro[indoline-2,2′-naphtho[1,2-b][1,4]oxazin]-6′-amine]
- color displayed upon irradiation (upon irradiation with UV-A radiation): bluish-green color
- maximum absorption (upon irradiation with UV-A radiation (open merocyanine form)): 658 nm
